Laboratory results reported in ChEMBL document CHEMBL3588798, “Non-peptide ligand binding to the formyl peptide receptor FPR2--A comparison to peptide ligand binding modes” (Bioorg Med Chem, 2015).

What follows are molecules tested against T1, N-formyl peptide receptor 2 (Homo sapiens, UniProt P25090) (assay: Allosteric antagonist activity against FPR2 (unknown origin)).
T1 sequence (P25090 whole entry): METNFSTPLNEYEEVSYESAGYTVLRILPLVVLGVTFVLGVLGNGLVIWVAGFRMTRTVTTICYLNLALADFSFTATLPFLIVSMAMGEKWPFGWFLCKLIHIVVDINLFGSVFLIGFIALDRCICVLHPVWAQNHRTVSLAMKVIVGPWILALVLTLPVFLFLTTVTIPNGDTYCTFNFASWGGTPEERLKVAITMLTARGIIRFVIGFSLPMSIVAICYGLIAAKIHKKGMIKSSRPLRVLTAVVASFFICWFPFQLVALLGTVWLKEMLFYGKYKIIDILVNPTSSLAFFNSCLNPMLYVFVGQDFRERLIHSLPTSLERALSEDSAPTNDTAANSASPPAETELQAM

`CCCCCCCCCCCCCCCC(=O)N[C@@H](CCCCN)C(=O)N(CCC(=O)N[C@@H](CCCCN)C(=O)N(CCC(=O)N[C@@H](CCCCN)C(=O)N(CCC(=O)N[C@@H](CCCCN)C(=O)N(CCC(=O)N[C@@H](CCCCN)C(=O)N(CCC(=O)N[C@@H](CCCCN)C(=O)N(CCC(N)=O)[C@@H](C)c1ccccc1)[C@@H](C)c1ccccc1)[C@@H](C)c1ccccc1)[C@@H](C)c1ccccc1)[C@@H](C)c1ccccc1)[C@@H](C)c1ccccc1` was tested. Which IC50 did it give?
Its IC50 is 50 nM.

The molecules below were run against T1, N-formyl peptide receptor 2 (assay: Agonist activity against human FPR2 expressed in human HL60 cells by Fluo-4AM dye based intracellular Ca2+ mobilization assay).
Format: functional, cell-based, HL-60

`COc1ccc(CCNC(=O)Nc2ccccc2)cc1` was tested. Which EC50 did it give?
The EC50 was 3000 nM.

Which EC50 does the source give for `COc1ccc(CCNC(=O)Nc2ccc(Cl)cc2)cc1` here?
The EC50 was 400 nM.

Which EC50 does the source give for `COc1ccc(CCNC(=O)Nc2ccc(F)cc2)cc1` here?
Its EC50 is 900 nM.

`COc1ccc(CCNC(=O)Nc2ccc(Br)cc2)cc1` was tested. Which EC50 did it give?
Its EC50 is 100 nM.

With `COc1ccc2[nH]c(SCC(=O)Nc3ccc(OC)c(OC)c3)nc2c1` as the molecule, how does the EC50 read?
Its EC50 is 4700 nM.

For `CCOC(=O)C1CCN(C(=O)[C@H](Cc2c[nH]c3ccccc23)NC(=O)Nc2ccc(Br)cc2)CC1`, which EC50 is on record?
Its EC50 is 130 nM.

With `O=C(Nc1ccc(Br)cc1)N[C@@H](Cc1ccccc1)C(=O)N1CCCC1` as the molecule, how does the EC50 read?
Its EC50 is 140 nM.

For `O=C(Nc1ccc(Br)cc1)N[C@@H](Cc1ccccc1)C(=O)N1CCCCC1`, which EC50 is on record?
The EC50 was 40 nM.

How did the EC50 turn out when `O=C(Nc1ccc(Cl)cc1)N[C@@H](Cc1ccccc1)C(=O)N1CCCCC1` was run?
Its EC50 is 50 nM.

Which EC50 does the source give for `CSc1ccc(NC(=O)N[C@@H](Cc2ccccc2)C(=O)N2CCCCC2)cc1` here?
Its EC50 is 300 nM.

For `O=C(Nc1ccc(Br)cc1)N[C@@H](Cc1ccccc1)C(=O)NN1CCCCNC1=O`, which EC50 is on record?
The EC50 was 4 nM.

With `CCOC(=O)C1CCCN(C(=O)[C@H](Cc2ccccc2)NC(=O)Nc2ccc(Br)cc2)C1` (stereo partly drawn) as the molecule, how does the EC50 read?
Its EC50 is 7 nM.

`CCOC(=O)C1CCN(C(=O)[C@H](Cc2ccccc2)NC(=O)Nc2ccc(Br)cc2)CC1` was tested. Which EC50 did it give?
Its EC50 is 160 nM.

Which EC50 does the source give for `O=C(Nc1ccc(Br)cc1)N[C@@H](Cc1ccccc1)C(=O)N1CCc2ccccc21` here?
Its EC50 is 250 nM.

Which EC50 does the source give for `COc1ccc2[nH]c(SCC(=O)Nc3ccccc3Br)nc2c1` here?
The EC50 was 4030 nM.

`COc1ccc2[nH]c(SCC(=O)Nc3ccc(C(C)=O)cc3)nc2c1` was tested. Which EC50 did it give?
The EC50 was 6000 nM.

How did the EC50 turn out when `CCc1ccc(NC(=O)CSc2nc3cc(OC)ccc3[nH]2)cc1` was run?
Its EC50 is 3200 nM.

`COC(=O)Nc1cccc(NC(=O)CSc2nc3cc(OC)ccc3[nH]2)c1` was tested. Which EC50 did it give?
Its EC50 is 7300 nM.

`CCOc1ccc2[nH]c(SCC(=O)Nc3ccccc3SC)nc2c1` was tested. Which EC50 did it give?
The EC50 was 8000 nM.

For `COc1ccc2[nH]c(SCC(=O)Nc3ccccc3Cl)nc2c1`, which EC50 is on record?
Its EC50 is 10000 nM.

The molecules below were run against T1, N-formyl peptide receptor 2 (assay: Agonist activity at human FPR2 expressed in rat RBL-2H3 cells by intracellular Ca2+ mobilization assay).
Format: functional, cell-based

With `CCCCOc1ccc(C(=O)NN2Cc3ccccc3NC2c2ccc(C)cc2)cc1` (stereo not drawn) as the molecule, how does the EC50 read?
The EC50 was 1480 nM.

Which EC50 does the source give for `CCCCOc1ccc(C(=O)NN2Cc3ccccc3NC2c2ccc(OC)cc2)cc1` (stereo not drawn) here?
The EC50 was 470 nM.

The molecules below were run against T1, N-formyl peptide receptor 2 (assay: Antagonist activity against human FPR2 expressed in rat RBL-2H3 cells pre-treated for 15 mins before addition of WKYMVm or C1 by intracellular Ca2+ mobilization assay).
Format: functional, cell-based

For `CCCCOc1ccc(C(=O)NN2Cc3ccccc3NC2c2ccc(O)cc2)cc1` (stereo not drawn), which IC50 is on record?
Its IC50 is 6650 nM.

`CCCCOc1ccc(C(=O)NN2Cc3ccccc3NC2c2ccc(C)cc2)cc1` (stereo not drawn) was tested. Which IC50 did it give?
Its IC50 is 170 nM.

Which IC50 does the source give for `CCCCOc1ccc(C(=O)NN2Cc3ccccc3NC2c2ccc(OC)cc2)cc1` (stereo not drawn) here?
The IC50 was 90 nM.

Each molecule was assayed against T1, N-formyl peptide receptor 2 (assay: Agonist activity at FPR2 (unknown origin) by Fluo4 florescence based intracellular Ca2+ mobilization assay).
Format: functional, cell-based

For `CCC[C@H]1CNC(=O)C(=O)N1C[C@@H]1CCCN1C[C@@H](Cc1ccc2ccccc2c1)N1C[C@@H](Cc2ccc(O)cc2)N(CC2CCCCC2)C(=O)C1=O`, which EC50 is on record?
The EC50 was 140 nM.

What follows are molecules tested against T1, N-formyl peptide receptor 2 (assay: Antagonist activity against FPR2 (unknown origin) pre-treated for 5 mins before addition of Wpep by Fluo4 florescence based intracellular Ca2+ mobilization assay).
Format: functional, cell-based

How did the IC50 turn out when `CC(C)[C@H]1CNC(=O)C(=O)N1C[C@@H]1CCCN1C[C@@H](Cc1ccc2ccccc2c1)N1C[C@@H](Cc2ccc(O)cc2)N(CC2CCCCC2)C(=O)C1=O` was run?
The IC50 was 80 nM.
